Test results: ChEMBL document CHEMBL1152311, “A multipronged approach to the study of peruvian ethnomedicinal plants: a legacy of the ICBG-Peru Project” (J Nat Prod, 2009)
Activity calls are given as the source filed them. The rule behind the calls is not given here.

Experiments:
MCF7 = assay: Cytotoxicity against human MCF7 cells; assay type: functional
[1] = Cytotoxicity against african green monkey Vero cells; assay type: cell-based; details: chlorocebus sabaeus
HT-29 = assay: Cytotoxicity against human HT-29 cells; assay type: functional
K562 = assay: Cytotoxicity against human K562 cells; assay type: functional
M14 = assay: Cytotoxicity against human M14 cells; assay type: functional
[2] = Cytotoxicity against mouse 3T3 cells; assay type: cell-based; details: BALB/3T3 clone A31 cells
PC-3 = assay: Cytotoxicity against human PC3 cells; assay type: functional
DU-145 = assay: Cytotoxicity against human DU145 cells; assay type: functional
NCI-H460 = assay: Cytotoxicity against human H460 cells; assay type: functional
Trypanosoma cruzi = assay: Antitrypanosomal activity against Trypanosoma cruzi Tulahuen C4 transfected with beta-galactosidase; assay type: functional
[3] = test system: Mycobacterium tuberculosis; assay: Antituberculosis activity against Mycobacterium tuberculosis H37Rv; assay type: functional, organism-based
ME-180 = assay: Cytotoxicity against human ME180 cells; assay type: functional
Saccharomyces cerevisiae [4] = assay: Antimicrobial activity against Saccharomyces cerevisiae RS321; assay type: functional
Leishmania amazonensis = assay: Antileishmanial activity against Leishmania amazonensis axenic amastigotes; assay type: functional
Mus musculus = species on record: Mus musculus; assay: Wound healing activity in mouse; assay type: functional
Saccharomyces cerevisiae [5] = assay: Antimicrobial activity against Saccharomyces cerevisiae RS322; assay type: functional

Q: Which GI50 (MCF7) does the source give for `COc1ccc(CCC(=O)c2c(O)cc(O)cc2OC)cc1` here?
A: The GI50 was 75.7 µM.

Q: What about the GI50 [1] of the same molecule?
A: Its GI50 is 134 µM.

Q: And the GI50 (HT-29)?
A: The GI50 was 117 µM.

Q: What about the GI50 (K562) of the same molecule?
A: Its GI50 is 24.5 µM.

Q: And the GI50 (M14)?
A: The GI50 was 133 µM.

Q: And the GI50 [2]?
A: The GI50 was 141 µM.

Q: And the GI50 (PC-3)?
A: The GI50 was 153 µM.

Q: What about the GI50 (DU-145) of the same molecule?
A: The GI50 was 138 µM.

Q: And the GI50 (NCI-H460)?
A: Its GI50 is 148 µM.

Q: What does the source list for `C=CCOc1cc(OC)c(C(=O)/C=C/c2ccc(OC)cc2)c(OCC=C)c1`?
A: GI50 (MCF7): 51 µM; GI50 (HT-29): 74.3 µM; GI50 (K562): 43.4 µM; GI50 (M14): 72.2 µM; GI50 [2]: 107 µM; GI50 (PC-3): 47.3 µM; GI50 (DU-145): 54.9 µM; Activity (Trypanosoma cruzi): 1.5 µM; GI50 (NCI-H460): 52.3 µM

Q: For `C/C=C1/C(=O)O[C@]23C=C[C@@H]4C(C(=O)OC)=CO[C@H](O[C@@H]12)[C@@H]43` [PLUMERICIN], which GI50 (MCF7) is on record?
A: The GI50 was > 430 µM.

Q: And the Activity [3]?
A: The Activity was “inactive”.

Q: And the GI50 (HT-29)?
A: The GI50 was > 430 µM.

Q: And the GI50 (ME-180)?
A: Its GI50 is > 430 µM.

Q: What about the IC12 (Saccharomyces cerevisiae [4]) of the same molecule?
A: Its IC12 is 241 µM.

Q: What about the GI50 [2] of the same molecule?
A: The GI50 was 431 µM.

Q: And the Activity (Leishmania amazonensis)?
A: Its Activity is 5 µM.

Q: And the GI50 (DU-145)?
A: Its GI50 is > 430 µM.

Q: And the GI50 (NCI-H460)?
A: Its GI50 is 276 µM.

Q: Which GI50 (MCF7) does the source give for `C[C@H](C/C=C\C(C)(C)OO)[C@H]1CC[C@@]2(C)[C@@H]3CC[C@H]4C(C)(C)[C@@H](O)CC[C@@]45C[C@@]35CC[C@]12C` here?
A: The GI50 was > 136 µM.

Q: And the GI50 [1]?
A: The GI50 was > 136 µM.

Q: And the Activity [3]?
A: Its Activity is “inactive”.

Q: What about the GI50 (HT-29) of the same molecule?
A: The GI50 was 65.2 µM.

Q: What about the GI50 (K562) of the same molecule?
A: Its GI50 is 65.2 µM.

Q: And the GI50 (M14)?
A: The GI50 was 58.6 µM.

Q: What about the GI50 [2] of the same molecule?
A: Its GI50 is 82.6 µM.

Q: And the Activity (Leishmania amazonensis)?
A: The Activity was 5.2 µM.

Q: What about the GI50 (PC-3) of the same molecule?
A: Its GI50 is > 136 µM.

Q: And the GI50 (DU-145)?
A: Its GI50 is 78.7 µM.

Q: And the GI50 (NCI-H460)?
A: The GI50 was 67.4 µM.

Q: For `CC(C)=CCC[C@](C)(O)[C@H]1CC=C(C)CC1`, which GI50 (MCF7) is on record?
A: The GI50 was 30 µM.

Q: What about the GI50 (HT-29) of the same molecule?
A: The GI50 was 28.9 µM.

Q: What about the GI50 (ME-180) of the same molecule?
A: Its GI50 is 18.2 µM.

Q: And the GI50 (K562)?
A: Its GI50 is 40.5 µM.

Q: And the GI50 (M14)?
A: Its GI50 is 15.1 µM.

Q: What about the GI50 [2] of the same molecule?
A: Its GI50 is 54.7 µM.

Q: What about the GI50 (PC-3) of the same molecule?
A: The GI50 was 28.5 µM.

Q: And the GI50 (DU-145)?
A: The GI50 was 25.8 µM.

Q: And the ED50 (Mus musculus)?
A: Its ED50 is 155 mg/kg.

Q: And the GI50 (NCI-H460)?
A: The GI50 was 32.8 µM.

Q: For `COC(=O)C1=CO[C@H](C)[C@@H]2CN3CC[C@@]4(C(=O)Nc5ccccc54)[C@H]3C[C@@H]12` [UNCARINE E], which GI50 (ME-180) is on record?
A: Its GI50 is 67.9 µM.

Q: What about the IC12 (Saccharomyces cerevisiae [4]) of the same molecule?
A: The IC12 was 326 µM.

Q: What about the GI50 [2] of the same molecule?
A: Its GI50 is 62.4 µM.

Q: What about the IC12 (Saccharomyces cerevisiae [5]) of the same molecule?
A: The IC12 was 380 µM.

Q: What about the GI50 (DU-145) of the same molecule?
A: Its GI50 is 114 µM.

Q: What about the GI50 (NCI-H460) of the same molecule?
A: The GI50 was 46.1 µM.
